Consider 21 molecules from ChEMBL document CHEMBL5344455, “Discovery and Characterization of Active CBP/EP300 Degraders Targeting the HAT Domain” (ACS Med Chem Lett, 2024).

Molecules are shown by their SMILES. Activity calls are given as the source filed them. The calls are words filed in the database; no cut-off is given here.

Experiment [1] concerns LP-1. Nature of the experiment: Antiproliferative activity against human LP-1 cells assessed as growth inhibition incubated for 3 days by fluorescence based assay. The experiment is classed as functional. The conditions noted are these: LP-1, 72 h, time 3 day.
Experiment [2] deals with T1, Protein cereblon/CREB-binding protein (Homo sapiens, UniProt Q92793+Q96SW2). The experiment in a line: Protac activity at CRBN/CBP in human LP-1 cells assessed as protein remaining at 5 uM after 16 hrs by Western blotting analysis. The experiment is classed as cell-based. (In general: Immunoblotting shows a protein as a band on a membrane.)
In experiment [3] the target is T2, Protein cereblon/Histone acetyltransferase p300 (Homo sapiens) (UniProt Q09472+Q96SW2). Nature of the experiment: Protac activity at CRBN/EP300 in human LP-1 cells assessed as protein remaining at 5 uM after 16 hrs by Western blotting analysis. The experiment is classed as cell-based.
Experiment [4] has as its target CREB-binding protein (Homo sapiens, UniProt Q92793). The experiment in a line: Inhibition of CBP (unknown origin) by radiometric assay.
Experiment [5] concerns the target von Hippel-Lindau disease tumor suppressor/CREB-binding protein (Homo sapiens) (UniProt Q92793+P40337). Nature of the experiment: Protac activity at VHL/CBP in human LP-1 cells assessed as protein remaining at 5 uM after 16 hrs by Western blotting analysis. The experiment is classed as cell-based.
Experiment [6] has as its target von Hippel-Lindau disease tumor suppressor/Histone acetyltransferase p300 (Homo sapiens) (UniProt Q09472+P40337). Nature of the experiment: Protac activity at VHL/EP300 in human LP-1 cells assessed as protein remaining at 5 uM after 16 hrs by Western blotting analysis. The experiment is classed as cell-based.
Experiment [7] relates to LP-1. Nature of the experiment: Protac activity at IAP/CBP in human LP-1 cells assessed as protein remaining at 5 uM after 16 hrs by Western blotting analysis. It counts as cell-based.
Experiment [8] has as its system LP-1. Nature of the experiment: Protac activity at IAP/EP300 in human LP-1 cells assessed as protein remaining at 5 uM after 16 hrs by Western blotting analysis. The experiment is classed as cell-based.
Experiment [9] has as its target T1, Protein cereblon/CREB-binding protein. The experiment in a line: Protac activity at CRBN/CBP degradation in human LP-1 cells assessed as induction of ternary complex formation by measuring fluorescent foci at 2 uM after 6 hrs by fluorescence microscopic analysis. It counts as cell-based.
Experiment [10] has the same target. Nature of the experiment: Protac activity at CRBN/CBP degradation in human LP-1 cells at 5 uM preincubated with pomalidomide for 1 hr followed by compound addition and measured after 16 hrs by Western blotting analysis. The experiment is classed as cell-based.
Experiment [11] shares this target. The experiment in a line: Protac activity at CRBN/CBP degradation in human LP-1 cells at 5 uM preincubated with CPI-1612 for 1 hr followed by compound addition and measured after 16 hrs by Western blotting analysis. The experiment is classed as cell-based.
The target is the same in experiment [12]. The experiment in a line: Protac activity at CRBN/CBP degradation in human LP-1 cells at 5 uM preincubated with MG-132 for 1 hr followed by compound addition and measured after 16 hrs by Western blotting analysis. It counts as cell-based.
Experiment [13] shares this target. Nature of the experiment: Protac activity at CRBN/CBP in human LP-1 cells after 16 hrs by Western blotting analysis. It counts as cell-based.
The target is the same in experiment [14]. Nature of the experiment: Protac activity at CRBN/CBP in human LP-1 cells at 5 uM after 8 to 48 hrs by Western blotting analysis. The experiment is classed as cell-based. The note with it: time 8-48 hrs.
For experiment [15] the target is unchanged. Nature of the experiment: Protac activity at CRBN/CBP in human MM1.S cells at 5 uM after 16 hrs by Western blotting analysis. The experiment is classed as cell-based.
The test system of experiment [16] is CCRF-CEM. The experiment in a line: Antiproliferative activity against human CCRF-CEM cells. It counts as functional, cell-based.
The test system of experiment [17] is HL-60(TB). Nature of the experiment: Antiproliferative activity against human HL-60(TB) cells. It counts as functional, cell-based.
Experiment [18] has as its system K562. The experiment in a line: Antiproliferative activity against human K562 cells. It counts as functional, cell-based.
Experiment [19] concerns MOLT-4. The experiment in a line: Antiproliferative activity against human MOLT-4 cells. It counts as functional, cell-based.
The subject of experiment [20] is RPMI-8226. The experiment in a line: Antiproliferative activity against human RPMI-8226 cells. It counts as functional, cell-based.
For experiment [21], the system named is SR. The experiment in a line: Antiproliferative activity against human SR cells. It counts as functional, cell-based.
Experiment [22] deals with T1, Protein cereblon/CREB-binding protein. Nature of the experiment: Protac activity at CRBN/CBP in human LP-1 cells at 5 uM after 16 hrs by Western blotting analysis. It counts as cell-based.
Experiment [23] deals with T2, Protein cereblon/Histone acetyltransferase p300 (Homo sapiens). The experiment in a line: Protac activity at CRBN/EP300 in human MM1.S cells at 5 uM after 16 hrs by Western blotting analysis. It counts as cell-based.
Experiment [24] has the same target. Nature of the experiment: Protac activity at CRBN/EP300 in human LP-1 cells at 5 uM after 16 hrs by Western blotting analysis. It counts as cell-based.

Sequence of von Hippel-Lindau disease tumor suppressor/CREB-binding protein (Homo sapiens) (P40337 whole entry, looked up): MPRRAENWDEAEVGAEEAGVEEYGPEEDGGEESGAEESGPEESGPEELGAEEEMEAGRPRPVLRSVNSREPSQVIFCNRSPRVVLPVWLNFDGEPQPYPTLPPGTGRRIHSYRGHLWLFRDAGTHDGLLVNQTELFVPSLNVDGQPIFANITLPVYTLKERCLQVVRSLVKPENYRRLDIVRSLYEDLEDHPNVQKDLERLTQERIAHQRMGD
Sequence of von Hippel-Lindau disease tumor suppressor/CREB-binding protein (Homo sapiens) (Q92793 whole entry, looked up): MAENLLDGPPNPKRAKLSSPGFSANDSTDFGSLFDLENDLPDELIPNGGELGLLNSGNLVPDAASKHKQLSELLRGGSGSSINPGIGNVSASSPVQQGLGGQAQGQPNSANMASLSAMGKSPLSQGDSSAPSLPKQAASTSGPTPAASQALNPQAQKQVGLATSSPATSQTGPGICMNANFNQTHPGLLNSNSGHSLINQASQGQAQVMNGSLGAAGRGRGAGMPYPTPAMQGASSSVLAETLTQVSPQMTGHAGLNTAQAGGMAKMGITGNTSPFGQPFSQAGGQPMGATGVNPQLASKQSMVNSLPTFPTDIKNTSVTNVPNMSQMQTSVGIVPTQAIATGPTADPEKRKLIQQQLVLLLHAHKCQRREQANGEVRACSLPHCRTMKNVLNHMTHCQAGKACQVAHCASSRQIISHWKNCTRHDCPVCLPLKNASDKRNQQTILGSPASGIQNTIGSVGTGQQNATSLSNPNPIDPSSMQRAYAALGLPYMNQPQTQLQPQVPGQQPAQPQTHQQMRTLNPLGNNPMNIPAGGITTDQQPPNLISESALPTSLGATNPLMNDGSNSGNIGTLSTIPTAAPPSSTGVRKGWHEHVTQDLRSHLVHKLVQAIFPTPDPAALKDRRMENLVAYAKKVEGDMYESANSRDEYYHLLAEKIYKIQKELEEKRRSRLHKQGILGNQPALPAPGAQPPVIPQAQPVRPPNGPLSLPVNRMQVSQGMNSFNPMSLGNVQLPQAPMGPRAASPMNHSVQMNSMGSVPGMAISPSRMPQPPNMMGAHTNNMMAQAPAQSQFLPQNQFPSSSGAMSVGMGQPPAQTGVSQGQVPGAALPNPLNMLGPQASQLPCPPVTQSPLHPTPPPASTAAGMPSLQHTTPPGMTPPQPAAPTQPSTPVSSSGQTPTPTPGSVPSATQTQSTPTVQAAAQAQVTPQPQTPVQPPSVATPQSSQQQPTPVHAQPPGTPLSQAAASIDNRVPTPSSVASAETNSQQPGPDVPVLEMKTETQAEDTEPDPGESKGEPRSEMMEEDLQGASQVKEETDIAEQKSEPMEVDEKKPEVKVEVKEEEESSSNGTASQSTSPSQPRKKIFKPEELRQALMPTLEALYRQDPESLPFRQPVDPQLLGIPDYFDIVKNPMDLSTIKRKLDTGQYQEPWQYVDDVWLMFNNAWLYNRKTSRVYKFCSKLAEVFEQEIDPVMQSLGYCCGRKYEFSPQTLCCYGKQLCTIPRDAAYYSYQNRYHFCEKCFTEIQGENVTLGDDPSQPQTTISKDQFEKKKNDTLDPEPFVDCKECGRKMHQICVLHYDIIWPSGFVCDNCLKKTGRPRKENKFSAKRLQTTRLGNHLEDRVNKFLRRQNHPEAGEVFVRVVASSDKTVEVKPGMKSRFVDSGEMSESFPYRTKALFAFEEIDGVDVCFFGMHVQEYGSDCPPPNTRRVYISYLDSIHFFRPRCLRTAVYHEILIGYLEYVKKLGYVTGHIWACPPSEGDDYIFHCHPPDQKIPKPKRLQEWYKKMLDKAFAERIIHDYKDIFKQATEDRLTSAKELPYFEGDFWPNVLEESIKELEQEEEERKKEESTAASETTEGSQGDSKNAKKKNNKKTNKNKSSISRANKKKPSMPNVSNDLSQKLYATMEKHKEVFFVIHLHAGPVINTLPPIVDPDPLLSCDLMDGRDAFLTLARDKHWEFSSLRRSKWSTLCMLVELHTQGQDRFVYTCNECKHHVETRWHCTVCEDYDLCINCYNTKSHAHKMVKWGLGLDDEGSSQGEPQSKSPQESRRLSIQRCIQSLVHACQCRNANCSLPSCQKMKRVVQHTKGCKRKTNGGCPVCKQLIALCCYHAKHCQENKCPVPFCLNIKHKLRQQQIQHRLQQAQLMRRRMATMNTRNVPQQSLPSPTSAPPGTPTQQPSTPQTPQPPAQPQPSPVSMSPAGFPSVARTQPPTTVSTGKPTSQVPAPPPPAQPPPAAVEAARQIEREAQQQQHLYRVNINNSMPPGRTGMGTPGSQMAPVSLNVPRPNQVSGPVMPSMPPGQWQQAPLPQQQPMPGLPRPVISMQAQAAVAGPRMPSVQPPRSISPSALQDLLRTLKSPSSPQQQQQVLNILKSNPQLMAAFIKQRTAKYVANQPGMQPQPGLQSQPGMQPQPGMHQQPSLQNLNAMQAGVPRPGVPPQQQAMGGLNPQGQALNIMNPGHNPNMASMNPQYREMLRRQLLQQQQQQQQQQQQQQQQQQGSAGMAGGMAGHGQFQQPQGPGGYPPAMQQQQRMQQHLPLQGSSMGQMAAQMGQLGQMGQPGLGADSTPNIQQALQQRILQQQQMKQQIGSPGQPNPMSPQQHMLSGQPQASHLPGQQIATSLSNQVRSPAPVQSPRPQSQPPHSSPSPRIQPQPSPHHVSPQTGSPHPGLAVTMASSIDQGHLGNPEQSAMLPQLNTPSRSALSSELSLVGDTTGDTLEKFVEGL
Sequence of von Hippel-Lindau disease tumor suppressor/Histone acetyltransferase p300 (Homo sapiens) (P40337 whole entry, looked up): as the sequence (P40337 whole entry, looked up) above
Sequence of von Hippel-Lindau disease tumor suppressor/Histone acetyltransferase p300 (Homo sapiens) (Q09472 whole entry, looked up): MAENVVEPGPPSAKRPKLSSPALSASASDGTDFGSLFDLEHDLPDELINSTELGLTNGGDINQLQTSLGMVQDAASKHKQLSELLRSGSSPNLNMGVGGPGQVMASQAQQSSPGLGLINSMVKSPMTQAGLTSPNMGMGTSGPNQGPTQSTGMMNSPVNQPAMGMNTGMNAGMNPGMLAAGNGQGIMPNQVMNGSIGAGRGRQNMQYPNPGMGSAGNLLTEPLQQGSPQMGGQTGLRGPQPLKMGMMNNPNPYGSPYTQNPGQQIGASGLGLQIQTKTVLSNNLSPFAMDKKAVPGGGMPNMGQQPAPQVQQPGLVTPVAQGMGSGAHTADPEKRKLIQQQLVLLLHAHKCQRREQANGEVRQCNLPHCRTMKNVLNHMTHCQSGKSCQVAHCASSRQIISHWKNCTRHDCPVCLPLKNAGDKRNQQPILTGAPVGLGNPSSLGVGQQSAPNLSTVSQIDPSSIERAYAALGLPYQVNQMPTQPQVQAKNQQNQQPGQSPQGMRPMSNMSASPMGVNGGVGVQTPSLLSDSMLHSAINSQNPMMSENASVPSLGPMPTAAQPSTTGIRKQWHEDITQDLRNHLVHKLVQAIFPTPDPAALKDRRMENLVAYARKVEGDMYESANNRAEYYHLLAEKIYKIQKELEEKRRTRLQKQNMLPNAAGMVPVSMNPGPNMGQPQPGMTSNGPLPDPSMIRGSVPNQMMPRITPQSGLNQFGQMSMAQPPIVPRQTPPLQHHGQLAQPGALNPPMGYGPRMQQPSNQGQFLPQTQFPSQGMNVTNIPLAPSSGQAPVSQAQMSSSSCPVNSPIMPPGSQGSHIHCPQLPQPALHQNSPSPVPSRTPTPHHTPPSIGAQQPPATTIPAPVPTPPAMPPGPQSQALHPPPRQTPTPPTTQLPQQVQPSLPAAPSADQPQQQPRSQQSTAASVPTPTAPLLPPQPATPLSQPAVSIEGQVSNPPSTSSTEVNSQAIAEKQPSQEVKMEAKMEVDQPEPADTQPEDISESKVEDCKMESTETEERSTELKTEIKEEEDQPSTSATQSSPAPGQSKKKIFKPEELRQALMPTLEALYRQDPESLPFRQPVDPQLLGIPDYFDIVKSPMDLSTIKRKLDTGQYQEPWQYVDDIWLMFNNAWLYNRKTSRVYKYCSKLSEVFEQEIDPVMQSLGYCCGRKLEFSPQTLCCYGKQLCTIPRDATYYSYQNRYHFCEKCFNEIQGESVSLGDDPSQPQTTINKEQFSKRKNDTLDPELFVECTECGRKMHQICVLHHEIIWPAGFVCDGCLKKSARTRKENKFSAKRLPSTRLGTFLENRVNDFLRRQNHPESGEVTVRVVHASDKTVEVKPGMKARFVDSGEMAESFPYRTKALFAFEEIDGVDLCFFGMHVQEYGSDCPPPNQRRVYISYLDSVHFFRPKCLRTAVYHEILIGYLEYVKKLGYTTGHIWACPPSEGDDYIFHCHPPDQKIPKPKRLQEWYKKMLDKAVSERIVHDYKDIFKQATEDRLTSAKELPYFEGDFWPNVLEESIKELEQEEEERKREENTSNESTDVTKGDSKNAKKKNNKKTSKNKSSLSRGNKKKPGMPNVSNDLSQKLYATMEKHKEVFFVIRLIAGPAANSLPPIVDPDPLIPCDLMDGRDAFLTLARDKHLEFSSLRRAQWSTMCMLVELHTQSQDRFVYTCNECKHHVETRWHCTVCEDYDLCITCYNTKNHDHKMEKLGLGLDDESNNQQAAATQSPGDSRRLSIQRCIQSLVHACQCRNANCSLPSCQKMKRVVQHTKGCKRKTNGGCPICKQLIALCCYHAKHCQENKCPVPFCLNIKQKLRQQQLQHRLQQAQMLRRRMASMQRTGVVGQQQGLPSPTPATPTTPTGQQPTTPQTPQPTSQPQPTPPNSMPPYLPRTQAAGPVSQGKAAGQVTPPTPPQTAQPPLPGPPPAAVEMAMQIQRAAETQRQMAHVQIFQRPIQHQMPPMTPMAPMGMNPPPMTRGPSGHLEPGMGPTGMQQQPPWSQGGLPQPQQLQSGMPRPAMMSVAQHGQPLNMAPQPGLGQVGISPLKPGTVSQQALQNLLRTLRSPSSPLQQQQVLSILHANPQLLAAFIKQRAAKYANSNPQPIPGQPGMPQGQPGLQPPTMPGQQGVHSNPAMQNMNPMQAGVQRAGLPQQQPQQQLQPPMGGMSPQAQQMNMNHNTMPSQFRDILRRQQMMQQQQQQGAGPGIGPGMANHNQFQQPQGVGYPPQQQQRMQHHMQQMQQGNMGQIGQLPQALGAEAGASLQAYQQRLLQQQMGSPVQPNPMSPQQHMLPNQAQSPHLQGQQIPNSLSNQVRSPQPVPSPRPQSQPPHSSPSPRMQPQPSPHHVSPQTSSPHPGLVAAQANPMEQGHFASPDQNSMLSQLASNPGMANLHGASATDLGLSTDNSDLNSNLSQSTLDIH
Sequence of CREB-binding protein (Q92793 whole entry): as the sequence (Q92793 whole entry, looked up) above

Usually GI50 stands for the concentration at which growth is held to half of that of the control. As for `C[C@H](CN[C@@H](C(=O)Nc1ccc(-c2cnn(CCCC(=O)NCCOCCOCCOCCNc3cccc4c3C(=O)N(C3CCC(=O)NC3=O)C4=O)c2)cn1)c1ccccc1)c1ccc(C#N)cc1` (some centres not stated), the GI50 in experiment [1] was determined as 0.5 µM. The values for the Activity in experiment [2] and in [3] were > 95% and 76%, respectively.
What is called IC50 is the concentration needed to halve the response being measured. Higher therefore signals weaker potency. The molecule `COCCNC(=O)CCCCn1cc(-c2ccc(NC(=O)C(NCC(C)c3ccc(C#N)cc3)c3ccccc3)nc2)cn1` (configuration not stated) showed an IC50 in experiment [4] of 0.819 µM.
As to `Cc1ncsc1-c1ccc(CNC(=O)[C@@H]2C[C@@H](O)CN2C(=O)[C@@H](NC(=O)CCCCCCCNC(=O)CCCn2cc(-c3ccc(NC(=O)[C@H](NC[C@@H](C)c4ccc(C#N)cc4)c4ccccc4)nc3)cn2)C(C)(C)C)cc1`, the Activity in experiment [5] and in experiment [6] was > 95% throughout. For the same molecule, in [1], the GI50 came to 4.7 µM.
As for `C[C@H](CN[C@@H](C(=O)Nc1ccc(-c2cnn(CCCC(=O)NCCOCCOCCOCCOCCNc3cccc4c3C(=O)N(C3CCC(=O)NC3=O)C4=O)c2)cn1)c1ccccc1)c1ccc(C#N)cc1` (some centres not stated), the outcome in experiment [2] and in experiment [3] was Active.
As to `CCOCCNC(=O)CCCn1cc(-c2ccc(NC(=O)C(NCC(C)c3ccc(C#N)cc3)c3ccccc3)nc2)cn1` (configuration not stated), in experiment [4], the IC50 was 1.01 µM.
In turn, `C[C@H](CN[C@@H](C(=O)Nc1ccc(-c2cnn(C)c2)cn1)c1ccccc1)c1ccc(C#N)cc1` gave an IC50 in experiment [4] of 0.116 µM. Besides, the GI50 in [1] turned out to be 0.005 µM.
Turning to `CN[C@@H](C)C(=O)N[C@H](C(=O)N1C[C@@H](NC(=O)CCOCCOCCOCCNC(=O)CCCn2cc(-c3ccc(NC(=O)[C@H](NC[C@@H](C)c4ccc(C#N)cc4)c4ccccc4)nc3)cn2)C[C@H]1C(=O)Nc1c(F)cccc1F)C(C)(C)C`, the GI50 in experiment [1] stood at 0.5 µM. Moreover, the Activity in experiment [7] and in experiment [8] was > 95% each time.
As for `C[C@H](CN[C@@H](C(=O)Nc1ccc(-c2cnn(CCCC(=O)NCCOCCOCCOCCOCCOCCNc3cccc4c3C(=O)N(C3CCC(=O)NC3=O)C4=O)c2)cn1)c1ccccc1)c1ccc(C#N)cc1` (some centres not stated), the outcome in experiment [2] and in experiment [3] was Active.
Regarding `Cc1ncsc1-c1ccc(CNC(=O)[C@@H]2C[C@@H](O)CN2C(=O)[C@@H](NC(=O)COCCOCCNC(=O)CCCn2cc(-c3ccc(NC(=O)[C@H](NC[C@@H](C)c4ccc(C#N)cc4)c4ccccc4)nc3)cn2)C(C)(C)C)cc1`, the Activity in experiment [5] and in experiment [6] was > 95% in each case. Further, the GI50 in experiment [1] came out at 1 µM.
With `CCOCCNC(=O)CCn1cc(-c2ccc(NC(=O)C(NCC(C)c3ccc(C#N)cc3)c3ccccc3)nc2)cn1` (configuration not stated), in experiment [4], the IC50 came to 1.87 µM.
For the molecule `C[C@H](CN[C@@H](C(=O)Nc1ccc(-c2cnn(CCCC(=O)NCCOCCOCCNc3cccc4c3C(=O)N(C3CCC(=O)NC3=O)C4=O)c2)cn1)c1ccccc1)c1ccc(C#N)cc1` (some centres not stated), in [1], the GI50 came out at 0.33 µM. Moreover, the Activity is > 95% in [2] and 79% in experiment [3].
A word on the EC50: it is the midpoint of the concentration-response curve. With `C[C@H](CN[C@@H](C(=O)Nc1ccc(-c2cnn(CCCC(=O)NCCOCCOCCOCCOCCOCCOCCNc3cccc4c3C(=O)N(C3CCC(=O)NC3=O)C4=O)c2)cn1)c1ccccc1)c1ccc(C#N)cc1` (some centres not stated), the result in experiment [2], in experiment [3], in [10], in experiment [11], in experiment [12] and in experiment [14] was Active. Moreover, the result in [15], in [16], in experiment [17], in experiment [18], in [19] and in experiment [20] was Active. The result in experiment [21] was Active. Moreover, the EC50 in experiment [9] is 1.2 µM; in [13], 1.3 µM.
As for `Nc1cccc2c1C(=O)N(C1CCC(=O)NC1=O)C2=O` (configuration not stated) [POMALIDOMIDE], in experiment [1], the GI50 was > 10 µM.
Take `CN[C@@H](C)C(=O)N[C@H](C(=O)N1C[C@@H](NC(=O)CCCCCCCNC(=O)CCCn2cc(-c3ccc(NC(=O)[C@H](NC[C@@H](C)c4ccc(C#N)cc4)c4ccccc4)nc3)cn2)C[C@H]1C(=O)Nc1c(F)cccc1F)C(C)(C)C`: the GI50 in experiment [1] was 2.3 µM. Besides, the Activity in experiment [7] and in [8] was > 95% throughout.
Turning to `CN[C@@H](C)C(=O)N[C@H](C(=O)N1C[C@@H](NC(=O)CCOCCOCCNC(=O)CCCn2cc(-c3ccc(NC(=O)[C@H](NC[C@@H](C)c4ccc(C#N)cc4)c4ccccc4)nc3)cn2)C[C@H]1C(=O)Nc1c(F)cccc1F)C(C)(C)C`, the GI50 in experiment [1] is > 10 µM. Further, the values for the Activity in experiment [7] and in [8] were 87% and 93%, respectively.
On to `C[C@H](CN[C@@H](C(=O)Nc1ccc(-c2cnn(CCCC(=O)NCCOCCOCCOCCOCCOCCOCCNc3cccc4c3C(=O)N(C3CCC(=O)N(C)C3=O)C4=O)c2)cn1)c1ccccc1)c1ccc(C#N)cc1` (some centres not stated), for which the result in experiment [9] was inactive.
Turning to `C[C@H](CN[C@@H](C(=O)Nc1ccc(-c2cnn(CCCC(=O)NCCOCCOCCOCCOCCOCCOCCOCCNc3cccc4c3C(=O)N(C3CCC(=O)NC3=O)C4=O)c2)cn1)c1ccccc1)c1ccc(C#N)cc1` (some centres not stated), the result in experiment [2] and in experiment [3] was Active.
As to `C[C@H](CN[C@@H](C(=O)Nc1ccc(-c2cnn(CCCC(=O)NCCCCCCCCNc3ccc4c(c3)C(=O)N(C3CCC(=O)NC3=O)C4=O)c2)cn1)c1ccccc1)c1ccc(C#N)cc1` (some centres not stated), the GI50 in experiment [1] was 0.26 µM. Also, the results for the Activity in [2] and in experiment [3] were > 95% and 95%, respectively.
As for `Cc1ncsc1-c1ccc(CNC(=O)[C@H]2C[C@H](O)CN2C(=O)[C@H](NC(=O)CCOCCOCCOCCNC(=O)CCCn2cc(-c3ccc(NC(=O)[C@H](NC[C@@H](C)c4ccc(C#N)cc4)c4ccccc4)nc3)cn2)C(C)(C)C)cc1`, the values for the Activity in [5] and in [6] were > 95% and 89%, respectively. For the same molecule, the GI50 in [1] worked out at 2.2 µM.
As to `C[C@H](CN[C@@H](C(=O)Nc1ccc(-c2cnn(CCCC(=O)NCCCCCCCCNc3cccc4c3C(=O)N(C3CCC(=O)NC3=O)C4=O)c2)cn1)c1ccccc1)c1ccc(C#N)cc1` (some centres not stated), in experiment [1], the GI50 was found to be 0.47 µM. Besides, the Activity in [2] came to 87%; in experiment [3], 79%.
For the molecule `C[C@H](N(Cc1ccc(F)cc1)C(=O)CN1C(=O)O[C@@]2(CCc3cc(NC(=O)CCCCCCCCCCCNc4ccc5c(c4)C(=O)N(C4CCC(=O)NC4=O)C5=O)ccc32)C1=O)C(F)(F)F` (some centres not stated), the outcome in [15], in experiment [22], in experiment [23] and in experiment [24] was inactive.
